Values of other authors in patent publication US5348946A, “Heteroanthracycline antitumor analogs” (Biochem Immunosystems, Inc., priority 1991, dated 1994).

Conditions: compared with daunorubicin and doxorubicin; cited from earlier work

SMILES	antileukemic activity
CC(=O)[C@]1(O)Cc2c(c(O)c3oc4ccccc4c(=O)c3c2O)[C@@H](O[C@H]2C[C@H](NC(=O)C(F)(F)F)[C@H](O)[C@H](C)O2)C1 [Compound 5]	antileukemic activity, but lower than that of the parent antibiotics daunorubicin and doxorubicin
CC(=O)[C@]1(O)Cc2c(c(O)c3oc4ccccc4c(=O)c3c2O)[C@@H](O[C@H]2C[C@H](N)[C@H](O)[C@H](C)O2)C1 [Compound 4]	antileukemic activity, but lower than that of the parent antibiotics daunorubicin and doxorubicin
CC(=O)[C@@H]1Cc2c(c(O)c3oc4ccccc4c(=O)c3c2O)[C@@H](O[C@H]2C[C@H](N)[C@H](O)[C@H](C)O2)C1 [Compound 3]	antileukemic activity, but lower than that of the parent antibiotics daunorubicin and doxorubicin
